Experimental data as given in PubChem BioAssay (NCI).
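How tested: cells in 96-well plates exposed to compound for 48 hours at five concentrations. Definition used: TGI = concentration required for complete inhibition of growth.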

Legend:
Assay in all cases: NCI tumour cell line growth inhibition, 48 h
[1] = tested on: CCRF-CEM leukemia
[2] = tested on: EKVX NSCLC
[3] = tested on: HCT-15 colon
[4] = tested on: HT29 colon
[5] = tested on: IGROV1 ovarian
[6] = tested on: OVCAR-3 ovarian
[7] = tested on: OVCAR-5 ovarian
[8] = tested on: OVCAR-8 ovarian
[9] = tested on: RPMI-8226 leukemia
[10] = tested on: RXF 393 renal
[11] = tested on: SF-268 CNS
[12] = tested on: SF-295 CNS
[13] = tested on: SF-539 CNS
[14] = tested on: SK-MEL-2 melanoma
[15] = tested on: SK-MEL-28 melanoma
[16] = tested on: SN12C renal
[17] = tested on: SNB-75 CNS
[18] = tested on: SW-620 colon
[19] = tested on: TK-10 renal

SMILES	TGI [1] [µM]	TGI [2] [µM]	TGI [3] [µM]	TGI [4] [µM]	TGI [5] [µM]	TGI [6] [µM]	TGI [7] [µM]	TGI [8] [µM]	TGI [9] [µM]	TGI [10] [µM]	TGI [11] [µM]	TGI [12] [µM]	TGI [13] [µM]	TGI [14] [µM]	TGI [15] [µM]	TGI [16] [µM]	TGI [17] [µM]	TGI [18] [µM]	TGI [19] [µM]
COc1ccc2[nH]c3c(C)c4cnccc4c(C)c3c2c1	> 10	> 10	3.4	3.41	> 10	2.43	> 10	2.2	7.11	6.02	> 10	> 10	3.3	> 10	3.44	> 10	> 10	3.4	> 10
CCOC(=O)C(Cc1cn(S(=O)(=O)c2ccc(C)cc2)cn1)P(=O)(OCC)OCC (stereo unspecified)	> 100	> 100	> 100	> 100	> 100	> 100	> 100	> 100	> 100	> 100	> 100	> 100	> 100	> 100	> 100	> 100	> 100	> 100	> 100
NC(N)=NS(=O)(=O)c1ccc(NNc2c3ccccc3nc3c(C(=O)Nc4ccc(S(N)(=O)=O)cc4)cccc23)cc1	88.7	> 100	> 100	56.1	> 100	> 100	> 100	> 100	> 100	> 100	> 100	> 100	> 100	46.9	> 100	> 100	> 100	> 100	> 100
O=C(NNC(=O)c1ccccc1Cl)c1ccccc1O	> 100	> 100	> 100	> 100	> 100	> 100	> 100	> 100	> 100	> 100	> 100	> 100	> 100	> 100	> 100	> 100	> 100	> 100	> 100
NNC(=S)N/N=C/C(Cl)=C(\Cl)C(=O)O	> 100	> 100	> 100	> 100	> 100	> 100	> 100	> 100	> 100	> 100	> 100	> 100	> 100	> 100	> 100	> 100	> 100	> 100	> 100
Oc1[nH]c2ccccc2c1N=NC(=S)N1CCCC1	6.78	> 65.3	4.29	> 53.5	15	17	> 82.6	13.6	9.64	3.55	> 58.3	17.1	10.7	33.2	> 100	31.9	14.1	52.7	36.2
O=[N+]([O-])c1ccc(N2N=C(c3ccc4ccccc4c3O)CC2c2ccc(Cl)cc2Cl)c([N+](=O)[O-])c1 (stereo unspecified)	35.5	> 100	> 100	> 100	> 100	> 100	> 100	> 100	41.4	> 100	> 100	> 100	70.6	> 100	> 100	> 100	> 100	> 100	> 100
CC(OCc1ccccc1)C(NC(=O)C1CSSCC(NC(=O)C(Cc2ccccc2)NC(=O)OCc2ccccc2)C(=O)NC(Cc2ccccc2)C(=O)NC(Cc2cn(C=O)c3ccccc23)C(=O)NC(CCCCNC(=O)OCc2ccccc2)C(=O)NC(C(C)OCc2ccccc2)C(=O)N1)C(N)=O (stereo unspecified)	> 100	> 100	> 100	> 100	> 100	34	> 100	> 100	53.3	> 100	> 100	> 100	> 100	28.7	> 100	> 100	> 71.3	> 54.5	> 84.8
O=C1C2Nc3ccccc3SC2C(=O)N1c1cccc([N+](=O)[O-])c1 (stereo unspecified)	> 100	> 100	> 100	> 100	> 100	> 100	> 100	> 100	> 100	> 100	> 100	> 100	> 100	> 100	> 100	> 100	> 100	> 100	> 100
Cc1nc(N)sc1C(=O)/C=C/c1ccc([N+](=O)[O-])cc1	> 100	> 100	> 100	> 100	> 100	> 100	> 100	> 100	> 100	> 100	> 100	> 100	> 100	> 100	> 100	> 100	> 100	> 100	> 100
COc1ccc(-n2c(=O)n(C)c(=O)n2-c2c(C)c(C)c(C)c(C)c2C)cc1	> 100	> 100	> 100	> 100	> 100	> 100	> 100	> 100	> 100	> 100	> 100	> 100	> 100	> 100	> 100	> 100	> 100	> 100	> 100
Cc1cccc(N=C2NC(=O)C(CC(=O)Nc3ccc(Cl)cc3C)S2)c1 (stereo unspecified)	> 100	> 100	> 100	> 100	> 100	> 100	> 100	> 100	> 100	> 100	> 100	> 100	> 100	> 100	> 100	> 100	> 100	> 100	> 100
CN(C)/C=N/S(=O)(=O)c1nn2c(C=O)c(-c3ccc([N+](=O)[O-])cc3)nc2s1	19.2	58.7	> 49.6	4.38	17.6	18	> 79.6	47.4	> 60.9	> 67	> 72.9	> 100	71.4	51.3	18.3	22.6	> 86.9	> 34	21.6
N#CC(c1ccccc1)N(CCc1ccccc1)C(=O)Oc1ccccc1 (stereo unspecified)	> 100	> 100	> 100	> 100	> 100	> 100	> 100	> 100	> 100	> 100	> 100	> 100	> 100	> 100	> 100	> 100	74.7	> 100	> 100
O=C1/C(=C\c2c(-c3ccccc3)nn(-c3ccccc3)c2O)C(c2ccccc2)=NN1c1ccccc1	> 100	> 100	> 100	> 100	> 100	> 100	> 100	> 100	> 100	> 100	> 100	> 100	> 100	> 100	> 100	> 100	> 100	> 100	> 100
COc1ccc2c(c1)c1c3c(ccc4ncn2c43)N(CCN(C)C)CCN=1	1.09	2.71	1.31	1.58	4.37	2.4	2.83	1.56	2.48	2.85	4.24	1.62	1.1	2.32	2.45	1.26	2.26	2.13	5.73
COc1ccc(C2C(Cl)C(=O)N2NC(=O)c2ccc(N)cc2)cc1OC (stereo unspecified)	4.45	35.2	21.3	6.28	3.27	13.1	34.8	16.4	9.04	30.4	36.8	18.4	21.8	26.6	17.6	24.5	33.3	11.2	30.7
N#CC(c1ccccc1)(c1ccccc1)[C@@H](c1ccccc1)[C@H](Cc1ccccc1)NS(=O)(=O)c1ccccc1	> 100	> 100	> 100	> 100	> 100	> 100	> 100	> 100	> 100	> 100	> 100	> 100	> 100	> 100	> 100	> 100	> 100	> 100	> 100
COC(=O)/C(=N\O)C(C(=O)C=C(C)C)C(=O)C(=O)Nc1ccccc1C (stereo unspecified)	> 100	> 100	> 100	> 100	> 100	> 100	> 100	> 100	> 100	> 100	> 100	> 100	> 100	> 100	> 100	> 100	> 100	> 100	> 100
CCCCCCCCCC(=O)CC(=O)c1c(O)cc(O)cc1O	> 75	> 75	43.8	38.8	> 75	53.2	48.2	36.9	37.1	31.1	49.5	68.2	43.3	40.9	72.8	37.3	69.6	> 75	> 75
CCOC(=O)c1c(C(F)(F)F)oc2c1ccc1nc3nonc3nc12	5.69	33.3	32.6	28.9	55.7	30.4	31.6	30.4	> 42.3	16.4	38.6	> 63.3	32	33.8	27.3	31.7	30	35.3	36.4
Cc1cc(=O)[nH]c(CNC(=O)Cc2ccccc2)n1	> 100	> 100	> 100	> 100	> 100	> 100	> 100	> 100	> 100	> 100	> 100	> 100	> 100	> 100	> 100	> 100	> 100	> 100	> 100
O=S(Cc1cc2c(cc1Br)OCO2)c1ccccc1 (stereo unspecified)	76.3	> 100	> 100	> 100	> 100	> 100	> 100	> 100	59.4	> 100	> 100	> 100	91.2	> 100	> 100	> 100	> 100	29.7	> 100
COC(=O)c1cc(C)n(NC(=O)OC(C)(C)C)c1C	> 100	> 100	> 100	> 100	> 100	> 100	> 100	> 100	> 100	> 100	> 100	> 100	> 100	> 100	> 100	> 100	> 100	> 100	> 100
